Laboratory results from publication PMC10616201, “Antioxidant and α-glucosidase inhibitory activities of compound isolated from Stachytarpheta jamaicensis (L) Vahl. leaves” (Scientific Reports, 2023).

Target: T1, α-glucosidase (EC 3.2.1.20; rat intestinal acetone powder)
T1 construct: gene Si; crude supernatant of rat intestinal acetone powder (Sigma 1639) in normal saline; native, unpurified; maltase activity read as glucose release
Test: glucose release from maltose, glucose kit, absorbance […] nm
Assay type: biochemical
Details: 10 mM maltose, 0.1 M buffer pH 6.9, 10 min, crude rat intestinal supernatant

SMILES: COC(=O)C1=CO[C@@H](O[C@@H]2O[C@H](CO)[C@@H](O)[C@H](O)[C@H]2O)[C@H]2[C@]1(O)[C@H](O)C[C@]2(C)O [compound 1, 6β-hydroxyipolamiide]
- α-Glucosidase inhibition / IC50: 537.79 ± 45.04 µg/mL
